Target: T1, Recombinant human liver cathepsin-B (Homo sapiens, UniProt P07858)
T1 construct: purchased Sigma Aldrich
Experiment: Cathepsin-B cleavage testing of peptide-AMC substrates
Assay type: biochemical
Details: for AMC fluorescence intensity change over time following addition of catB: 1 mM peptide in activation buffer pH 5, emission 440 nm
Experimental: Peptide-AMC: Recombinant human liver cathepsin-B (Sigma Aldrich) was used for the in vitro experiments. 0.25 μM DTT used in 0.25 μM HEPES in PBS (pH 5) as activation buffer. Peptides were dissolved in activation buffer to a final concentration as 1 mM. 0.5 μL of catB enzyme or vehicle control was added into the peptide solution. Plate reader analysis with Tecan Infinite M200 PRO plate reader (Mannedorf, Switzerland) with triplicates of each sample were performed in 96 well plates. The intensity of the excited dye at 388 nm was measured at 440 nm. Dual dye-labeled peptide on resin: CatB and activation buffer were prepared as described above. Dye-labeled peptides were again left on the resin. Resin was washed with methanol, dried in a vacuum overnight, and then immersed in PBS (pH 7.4) for 1 hour at 37° C. PBS was then drained followed by addition of 1 mL activation buffer and 5 μL of catB for 100 mg of resin. Control testing was performed in the same solution without the addition of catB. Supernatant was collected after 3 hours and 24 hours. The florescence intensity of triplicates of each sample was measured with plate reader FAM (λexc=485 nm, λem=535 nm) and Tamra (λexc=520 nm, λem=620 nm).
A variety of enzyme-cleavable peptide sequences used in antibody-drug and peptide-drug conjugates were tested for efficacy in the systems herein (Ref. B35, B40-B43; incorporated by reference in their entireties).
The experimentally cleavable VC-PABA sequence and a control, non-cleavable triple glycine (GGG) linker, were conjugated to a 7-amino-4-methylcoumarin (AMC) dye, useful in studying protease activity and specificity (VC-PABA-AMC and GGG-AMC) (FIGS. 9A and 9B) (Ref. B45; incorporated by reference in its entirety). The electron group of the AMC fluorophore is localized, and thus remains quenched, when linked to the VC-PABA or GGG peptide substrate. When the covalent bond between the peptide and AMC is cleaved, this group de-localizes resulting in fluorescence detected at 440 nm (excitation: 348 nm) allowing for real-time measurement of enzyme/substrate kinetics. […]

Substance	AMC fluorescence intensity change over time following addition of catB	catB cleavage efficacy among tested enzyme-cleavable peptide sequences (comparison of linker sequences)
Valine-Citrulline-Para(aminobenzoicacid) (VC-PABA)-AMC [VC-PABA-AMC]	rapidly increased	–
Glycine-Glycine-Glycine (GGG)-AMC [GGG-AMC, reference compound]	Neither GGG-AMC or GG-PABA-AMC showed any change in fluorophore intensity	–
valine-citrulline [VC]	–	fastest and most complete cleavage
